13 compounds from PubChem BioAssay (NCI) can be followed below.

Some test systems named below: MOLT-4 leukemia; MDA-N; SF-295 CNS; SK-MEL-28 melanoma; MDA-MB-231 breast; RPMI-8226 leukemia; K-562 leukemia; LOX IMVI melanoma; SK-MEL-5 melanoma; EKVX NSCLC; HS 578T breast; SN12C renal; SR leukemia.
Holding throughout (experiment): NCI anticancer screen, dose series, 48 h

SMILES strings stand for the structures.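 Exposure lasted 48 hours, with cells grown in 96-well plates and compounds tested at five concentrations. TGI denotes the concentration required for complete inhibition of growth.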

Consider `CN(C)c1ccc(/C=C(\NC(=O)c2ccccc2)C(=O)Nc2cccc(C(=O)NCCCO)c2)cc1`, for which the TGI in the assay with MOLT-4 leukemia, with MDA-N, with SF-295 CNS, in the assay on SK-MEL-28 melanoma, in the assay with MDA-MB-231 breast and in the assay on RPMI-8226 leukemia was greater than 100 µM each time. Further, the TGI with K-562 leukemia, with LOX IMVI melanoma, in the assay with SK-MEL-5 melanoma, with EKVX NSCLC, in the assay with HS 578T breast and with SN12C renal was greater than 100 µM each time.

Take `O=c1[nH]nc(Cc2ccccc2)n1/N=C/c1ccc([N+](=O)[O-])cc1`: the TGI with MOLT-4 leukemia, with MDA-N, with SF-295 CNS, with SK-MEL-28 melanoma, with MDA-MB-231 breast and in the assay on K-562 leukemia was greater than 100 µM each time. Also, the TGI in the assay with LOX IMVI melanoma, with SK-MEL-5 melanoma, in the assay on EKVX NSCLC, in the assay on HS 578T breast and in the assay on SN12C renal was greater than 100 µM each time.

With `COC(=O)[C@]12CSC[C@H]1C[C@H](c1cccc3ccccc13)N2`, the TGI with MOLT-4 leukemia was 61.4 µM; in the assay on SR leukemia it was greater than 100 µM; in the assay with MDA-N, greater than 100 µM; in the assay on SF-295 CNS it was greater than 100 µM; with SK-MEL-28 melanoma, greater than 100 µM; in the assay with MDA-MB-231 breast, greater than 100 µM. For the same compound, the TGI in the assay on RPMI-8226 leukemia, in the assay on K-562 leukemia, in the assay with LOX IMVI melanoma, in the assay with SK-MEL-5 melanoma, in the assay on EKVX NSCLC and in the assay on SN12C renal was greater than 100 µM throughout.

Turning to `O=c1[nH]c2c(c(=O)[nH]1)C(c1ccc([N+](=O)[O-])cc1)c1c([nH]c(=O)[nH]c1=O)O2`, the TGI with MDA-N was greater than 100 µM; in the assay with SF-295 CNS it was greater than 100 µM; with SK-MEL-28 melanoma it was greater than 100 µM; with MDA-MB-231 breast, greater than 100 µM; in the assay on RPMI-8226 leukemia, 75 µM; with SK-MEL-5 melanoma, greater than 100 µM. The TGI in the assay with EKVX NSCLC, with HS 578T breast and in the assay on SN12C renal was greater than 100 µM each time.

Turning to `C/C(=N/O)c1sc(-c2nc(C)c(/C(C)=N\O)s2)nc1C`, the TGI in the assay on MOLT-4 leukemia, in the assay on SR leukemia, in the assay on SF-295 CNS, in the assay on SK-MEL-28 melanoma, with RPMI-8226 leukemia and in the assay with K-562 leukemia was greater than 100 µM throughout. For the same compound, the TGI in the assay with LOX IMVI melanoma, in the assay on SK-MEL-5 melanoma, in the assay with EKVX NSCLC and with SN12C renal was greater than 100 µM throughout.

Turning to `CCCC(=O)OC[n+]1ccc(-c2c(COC(=O)NC(C)C)c(COC(=O)NC(C)C)c3n2CCC3)cc1`, the TGI in the assay with MOLT-4 leukemia, with SR leukemia, in the assay on SF-295 CNS, with SK-MEL-28 melanoma, in the assay on MDA-MB-231 breast and in the assay with RPMI-8226 leukemia was greater than 100 µM each time. Further, the TGI in the assay with K-562 leukemia, in the assay with LOX IMVI melanoma, in the assay on SK-MEL-5 melanoma, in the assay with EKVX NSCLC, in the assay on HS 578T breast and in the assay on SN12C renal was greater than 100 µM each time.

Take `Cc1nc2c3c(ccc2[nH]c1=O)C(=O)c1ccccc1C3=O`: the TGI with SR leukemia, in the assay with SF-295 CNS, with SK-MEL-28 melanoma, in the assay with K-562 leukemia, with LOX IMVI melanoma and in the assay on SK-MEL-5 melanoma was greater than 100 µM in each case. Further, the TGI in the assay on EKVX NSCLC and in the assay with SN12C renal was greater than 100 µM throughout.

Consider `COC(=O)C(=O)C(/C(=N/N)C(=O)Nc1ccccc1C(N)=O)c1nc2ccc([N+](=O)[O-])cc2[nH]c1=O` (stereo unspecified), for which the TGI in the assay on MOLT-4 leukemia, in the assay with SR leukemia, in the assay on SF-295 CNS, in the assay with SK-MEL-28 melanoma, in the assay with RPMI-8226 leukemia and in the assay with K-562 leukemia was greater than 100 µM throughout. The TGI in the assay on LOX IMVI melanoma, with SK-MEL-5 melanoma, in the assay with EKVX NSCLC and with SN12C renal was greater than 100 µM throughout.

Consider `CCN(CC)Cc1cc(Nc2ccnc3ccc4nn(C)nc4c23)ccc1O`, for which the TGI with MOLT-4 leukemia is greater than 100 µM; in the assay with SR leukemia, greater than 100 µM; in the assay on SF-295 CNS it was 29.1 µM; with SK-MEL-28 melanoma, 27.4 µM; in the assay with RPMI-8226 leukemia, greater than 100 µM; with K-562 leukemia, greater than 100 µM. In addition, the TGI with LOX IMVI melanoma is 21.5 µM; in the assay on SK-MEL-5 melanoma, 29.9 µM; with SN12C renal, 86 µM.

With `COc1ccc(/C=C2\CCC(CCN3CCOCC3)C2=O)cc1` (stereo unspecified), the TGI in the assay on MOLT-4 leukemia, with SR leukemia, in the assay with SF-295 CNS, in the assay with SK-MEL-28 melanoma, in the assay on RPMI-8226 leukemia and in the assay with K-562 leukemia was greater than 100 µM in each case. In addition, the TGI with LOX IMVI melanoma, with SK-MEL-5 melanoma, in the assay with EKVX NSCLC and with SN12C renal was greater than 100 µM each time.

Turning to `COc1cc(C2c3cc4c(cc3OC(NCCO)C2C)OCO4)cc(OC)c1O` (stereo unspecified), the TGI in the assay with MDA-N is 4.56 µM; in the assay with SF-295 CNS, greater than 100 µM; with SK-MEL-28 melanoma, greater than 100 µM; in the assay on MDA-MB-231 breast it was greater than 100 µM; in the assay with RPMI-8226 leukemia it was 19 µM; in the assay with SK-MEL-5 melanoma it was 56.5 µM. The same compound returned a TGI in the assay on SN12C renal greater than 100 µM.

Take `O=C(O)c1ccc([C@@H]2C(=O)N(O)[C@@H]3C=CC[C@@H]32)cc1`: the TGI in the assay with MOLT-4 leukemia, in the assay on SF-295 CNS, in the assay on SK-MEL-28 melanoma, in the assay on RPMI-8226 leukemia, in the assay with K-562 leukemia and in the assay with LOX IMVI melanoma was greater than 100 µM throughout. Also, the TGI with SK-MEL-5 melanoma, in the assay with EKVX NSCLC and in the assay on SN12C renal was greater than 100 µM each time.

As for `CS(=O)(=O)O[C@H]1[C@H](O)c2ccccc2[C@@H]1N=[N+]=[N-]`, the TGI in the assay with MOLT-4 leukemia, in the assay with SR leukemia, in the assay on MDA-N, in the assay with SF-295 CNS, in the assay on SK-MEL-28 melanoma and with MDA-MB-231 breast was greater than 100 µM in each case. The TGI with RPMI-8226 leukemia, with K-562 leukemia, in the assay with LOX IMVI melanoma, with SK-MEL-5 melanoma, with EKVX NSCLC and with SN12C renal was greater than 100 µM in each case.
